# How the values were obtained:
# [1] = Ferric reducing antioxidant power (FRAP) assay; conditions: compound at 10 μM relative to ferrous sulfate; for FRAP Value6 min (μM) M ± SD: 6 min; for FRAP Value65 min (μM) M ± SD: 65 min
# Procedure: The antioxidant property of different tryptamine derivatives were assessed and compared with the known antioxidants for potency. […] The FRAP assay is based on the measurement of the ability of the substance to reduce Fe^3+ to Fe^2+, greater the reducing ability greater the anti oxidant property. Antioxidants reduce Fe^3+-TPTZ in to blue colored Fe^2+-TPTZ complex, which results in an increase in the absorbance at 595 nm giving a FRAP value. […] Absorbance changes at different time intervals (FIG. 6) as well as at different concentrations (FIG. 7) at time 6 min in the presence of different compounds at 595 nm were measured. FRAP values at 6 min and 65 min were calculated from different tryptamine derivatives and some known antioxidant (Table 1). […] DPPH assay based on the DPPH free radicals scavenging power of the antioxidant molecules. Higher the scavenging power higher will be the antioxidant property.
# The assay was performed in a 96-well microplate. FRAP reagent was prepared by mixing of 10 ml acetate buffer (200 mM, pH-3.6), 1 ml of 2,4,6-tris(2-pyridyl)-s-triazine (TPTZ) solution (10 mM in 40 mM HCl) and 1 ml of ferric chloride solution (20 mM) in distilled water. For 1 h the mixture was kept in a water bath at 37° C. In 96-well microplates, 25 μL of the compounds under investigation dissolved (in methanol, some compound dissolved in water) at different concentrations in the range 1-25 μM was placed in triplicate and freshly prepared FRAP solution (175 μL) was added to this sample. A micro plate reader monitored the absorbance at 595 nm at different time intervals for up to 150 min. The absorbance of a mixture 175 μL TRAP sol and 25 μL methanol or water was taken which was subtracted from the absorbance of the samples at each time interval to calculate the absorbance change (ΔA). The FRAP value at time interval t (FRAP valuet) was calculated according to the formula: FRAP valuet(M)=(ΔatFl/ΔatFe^2+)×10^−5 Where ΔatFl is the absorbance change after the time interval t (6 and 65 min) relative to the tested flavonoid at the concentration of 10 μM and ΔatFe^2+ is the absorbance change at the same time interval relative to ferrous sulfate at the same concentration (Pal, C; et al. Free Radic Biol Med, 49(2), 258-267, 2010, Firuzi, O; et al. Biochim. Biophys. Acta 1721:174-184; 2005).
# [2] = DPPH free radical scavenging assay
# Procedure: The antioxidant property of different tryptamine derivatives were assessed and compared with the known antioxidants for potency. A range of different synthesized compounds and known anti oxidants, quercetin, ascorbic acid and gallic acid were analyzed by the FRAP assay. The FRAP assay is based on the measurement of the ability of the substance to reduce Fe^3+ to Fe^2+, greater the reducing ability greater the anti oxidant property. Antioxidants reduce Fe^3+-TPTZ in to blue colored Fe^2+-TPTZ complex, which results in an increase in the absorbance at 595 nm giving a FRAP value. […] Absorbance changes at different time intervals (FIG. 6) as well as at different concentrations (FIG. 7) at time 6 min in the presence of different compounds at 595 nm were measured. FRAP values at 6 min and 65 min were calculated from different tryptamine derivatives and some known antioxidant (Table 1). […] DPPH assay based on the DPPH free radicals scavenging power of the antioxidant molecules. Higher the scavenging power higher will be the antioxidant property. […] This assay was performed in presence of some known antioxidants such as ascorbic acid, quercetin and gallic acid.
# 2,2-Diphenyl-1-Picrylhydrazyl (DPPH) is a stable free radical that can accept hydrogen radical or an electron and become a stable diamagnetic molecule. The antioxidants can scavenge the DPPH by donating hydrogen as visualized by discoloration of the DPPH radical from purple to yellow (Pal, C; et al. Free Radic Biol Med, 49(2), 258-267; 2010, Ben Farhat, M.; et al. J. Agric. Food Chem. 57:10349-10356; 2009, Han, J; et al. Wei Sheng Yan Jiu 38:596-598; 2009). The assay system contained 1 mL of compounds under investigation dissolved (in methanol, some compound dissolved in water) at different concentrations in the range 10-100 μM solution and 4 ml of DPPH (0.15 mM) in methanol (80% in water v/v) and mixed well. It was allowed to stand for 30 min at 27° C. away from light. Ascorbic acid at the same concentration was taken as positive control. The absorbance of the solution was measured spectrophotometrically at 517 nm and from the decrease of absorption; the antioxidant activity of different tryptamine derivatives were determined.
# [3] = tested on: indomethacin-induced gastric mucosal damage; assay: Indomethacin-induced gastric mucosal damage (ulcer index, histology); type: in vivo, Sprague-Dwaley rats; conditions: for gastroprotective effect compared with SEGA (3a): 6.9 mg kg^−1 intraperitoneally, indomethacin-induced gastropathy; for Gastric mucosal damage (ulcer index): rats
# Procedure: Sprague-Dwaley rats (180-220 gm) were used for this study. Each group (control or experimental) of animals was maintained at 24±2° C. with 12 hrs lights and dark cycle. The animals were fasted for 24 hrs before the start of experiments. They were provided with water ad libitum to avoid food-induced increased acid secretion and its effect on gastric lesions. Gastric mucosal ulcer was developed by indomethacin as described (Pal, C; et al. Free Radic Biol Med, 49(2), 258-267; 2010, Biswas, K.; et al. J. Biol. Chem. 278:10993-11001; 2003, Bandyopadhyay, U.; et al. Life Sci. 71:2845-2865; 2002). Briefly, all the animals were divided into control, indomethacin and test compound group. Oral administration of indomethacin at a dose of 48 mg kg^−1 b.w was given to the fasted animals to induce gastric ulcer. […] Control group received vehicle only but no indomethacin. After 4 hrs of indomethacin treatment, the animals were sacrificed under proper euthanasia and stomachs were collected. The mucosal injury was scored as ulcer index as follows: 0=no pathology; 1=one pinhead ulcer. The sum of the total scores divided by the number of animals gave the ulcer index. All the in vivo studies were done in accordance with the institute animal ethical committee guidelines. To see the effect of SEGA on diclofenac induced gastric mucosal injury, gastric mucosal damage was developed by the oral administration of diclofenac (75 mg kg^−1) and the rest of the experiment was carried out in a similar way as described for indomethacin. Diclofenac produced pinhead ulcer like indomethacin and the mucosal injury was scored as ulcer index as described above. Ethanol-induced gastric mucosal injury was developed with oral administration of 1 ml of 50% ethanol (Banerjee, R. K. (2002) Life Sci 71, 2845-2865) and after 4 hrs the animals were sacrificed and cold-restrain stress induced mucosal injury was developed by immobilizing the animals at 4° C. for 3.5 hrs (Banerjee, R. K. (2002) Life Sci 71, 2845-2865, (2003) J Biol Chem 278, 10993-11001).
# Stomach tissues from the animals of different groups were washed first washed several times with PBS (pH 7.4) and later fixed in 10% buffered formalin for 12 hrs at 25° C. The formalin-fixed tissues were then dehydrated and embedded in paraffin for preparing semi-thin sections (Maity, P.; et al. J. Biol. Chem. 283:14391-14401; 2008). The semi-thin sections were prepared using a microtome and taken over poly-L-lysine coated glass slide for hematoxylene-eosine staining. The stained sections were observed under microscope (Leica DM-2500, Germany) and were documented by high-resolution digital camera.
# [4] = compounds 100 μM, 517 nm (Table 2)
# [5] = compound 6.9 mg kg^−1 intraperitoneally before indomethacin 48 mg kg^−1 oral
SMILES,FRAP Value6 min (μM) M ± SD [1] [µM],FRAP Value65 min (μM) M ± SD [1] [µM],"Absorbance change (ΔA) at 30 min [2, 4]",Absorbance change (ΔA) at 30 min ([2]; concentration 10 μM (Table 3)),Absorbance change (ΔA) at 30 min ([2]; concentration 30 μM (Table 3)),Absorbance change (ΔA) at 30 min ([2]; concentration 50 μM (Table 3)),Absorbance change (ΔA) at 30 min ([2]; concentration 80 μM (Table 3)),Absorbance change (ΔA) at 30 min ([2]; concentration 100 μM (Table 3)),gastroprotective effect compared with SEGA (3a) [3],"Gastric mucosal damage (ulcer index) [3, 5]","Gastric mucosal damage (ulcer index) ([3]; indomethacin 48 mg kg^−1 alone, oral)"
"O=C1O[C@H]([C@@H](O)CO)C(O)=C1O [Ascorbic acid, reference compound]",15.46 ± 0.07,15.89 ± 2.24,,,,,,,,,
"O=C(Cc1c[nH]c2ccccc12)NCCc1c[nH]c2ccc(O)cc12 [Compound 2c, N-(2-(5-hydroxy-1H-indol-3-yl)ethyl)-2-(1H-indol-3-yl)acetamide]",2.48 ± 0.10,3.57 ± 0.41,0.14 ± 0.04,,,,,,,,
"COc1ccc2[nH]cc(CCNC(=O)c3cc(O)c(O)c(O)c3)c2c1 [Compound 3c, 3,4,5-trihydroxy-N-(2-(5-methoxy-1H-indol-3-yl)ethyl)benzamide]",15.32 ± 0.46,21.96 ± 2.6,0.35 ± 0.08,0.18 ± 0.02,0.24 ± 0.03,0.28 ± 0.05,0.31 ± 0.07,0.35 ± 0.08,lesser gastroprotective effect,39 ± 2,
"O=C(NCCc1c[nH]c2ccccc12)c1cc(O)c(O)c(O)c1 [Compound 3b, N-(2-(1H-indol-3-yl)ethyl)-3,4,5-trihydroxybenzamide]",14.32 ± 0.36,19.65 ± 2.1,0.31 ± 0.06,0.16 ± 0.02,0.21 ± 0.05,0.23 ± 0.04,0.28 ± 0.03,0.31 ± 0.06,lesser gastroprotective effect,42 ± 2,
"O=C(/C=C/c1ccc(O)cc1)NCCc1c[nH]c2ccccc12 [Compound 2e, (E)-N-(2-(1H-indol-3-yl)ethyl)-3-(4-hydroxyphenyl)acrylamide]",2.45 ± 0.19,5.60 ± 1.02,0.11 ± 0.02,,,,,,,,
"O=C(Cc1c[nH]c2ccccc12)NCCc1c[nH]c2ccccc12 [Compound 2f, N-(2-(1H-indol-3-yl)ethyl)-2-(1H-indol-3-yl)acetamide]",2.44 ± 0.24,3.33 ± 0.49,0.13 ± 0.03,,,,,,,,
"COc1ccc2[nH]cc(CCNC(=O)/C=C/c3ccc(O)cc3)c2c1 [Compound 2h, (E)-3-(4-hydroxyphenyl)-N-(2-(5-methoxy-1H-indol-3-yl)ethyl)acrylamide]",1.87 ± 0.13,2.93 ± 1.43,0.11 ± 0.03,,,,,,,,
"COc1ccc2c(c1)c(CC(=O)O)c(C)n2C(=O)c1ccc(Cl)cc1 [Indomethacin, reference compound]",,,,,,,,,,,61 ± 3
"O=c1c(O)c(-c2ccc(O)c(O)c2)oc2cc(O)cc(O)c12 [Quercetin, reference compound]",28.11 ± 1.00,48.55 ± 4.85,,,,,,,,,
"NCCc1c[nH]c2ccc(OC(=O)c3cc(O)c(O)c(O)c3)cc12 [Compound 4d, 3-(2-aminoethyl)-1H-indol-5-yl 3,4,5-trihydroxybenzoate]",24.02 ± 1.98,35.40 ± 3.25,0.38 ± 0.07,0.18 ± 0.01,0.27 ± 0.03,0.31 ± 0.05,0.33 ± 0.05,0.38 ± 0.07,lesser gastroprotective effect,41 ± 2.5,
"COc1ccc2[nH]cc(CCNC(=O)Cc3c[nH]c4ccccc34)c2c1 [Compound 2i, 2-(1H-indol-3-yl)-N-(2-(5-methoxy-1H-indol-3-yl)ethyl) acetamide]",1.94 ± 0.04,2.5 ± 0.34,0.12 ± 0.02,,,,,,,,

# From patent US8901317B2, “Tryptamine derivatives, their preparation and their use in gastropathy” (Council of Scientific & Industrial Research, priority 2010, dated 2014)
